Results from patent EP3098220A1, “PROCESS FOR THE PREPARATION OF A NADPH OXIDASE INHIBITOR AND ITS POLYMORPHS AND USES THEREOF” (GenKyoTex SA, priority 2015, dated 2016).
Converted amounts (≈) assume the structure as drawn. “Also recorded” adds a separate entry of the source. Like-named read-outs stand apart in the source and are kept apart here.

How the values were obtained:
Format in all cases: physicochemical
[1] = Solubility assessment of the two crystal forms (solubilized free base concentration over time in pH 7.4 buffer, HPLC); settings: for solubility: pH 7.4
Description: The solubility of the two crystal forms have been characterized as described below: • A suspension is prepared in the buffer. Magnetic stirring is applied at 100 rpm.
The concentration of the free base in solution in buffer solution at pH 7.4 (38g Na2HPO4, 12 H2O + 3,8g NaH2PO4, 2 H2O completed to 1L with de-ionized water) is determined after 30 min, […], 2h, 4h, 6h and 24h at ambient temperature protected from light. For that purpose, the samples are withdrawn and filtered on filter Millex PVDF 0.22µm (diameter=13mm) and diluted in water/acetonitrile 50/50 (v/v) in order to reach a concentration in the range of standard solutions concentrations. Two separated dilutions are performed for each sample and the final result is the mean of these two dilutions results. The concentration of the solubilized fraction is determined by HPLC by a short gradient reverse phase standard method with UV-diode array detection solution.
The following tables display the solubilized freebase concentrations as a function of time at pH 7.4 (Table 10) at 20°C (samples protected from light) for: - Form A : crystalline freebase (sample 2), - Form B : crystalline freebase (sample 1).

[2] = Hygroscopicity assessment by dynamic water vapor sorption/desorption analysis (DVS); settings: for sample mass uptake: 25°C; for hygroscopic character: criteria: 2% maximum uptake at 60% relative humidity
Description: The dynamic vapor sorption (DVS) analysis with water is performed on a DVS-Intrinsic incubator from SMS Ltd, equipped with DVS-Intrinsic Control Software 1.0. A sample weight of about 8 to 10mg, placed in an aluminum pan holder, is submitted to a full cycle analysis (sorption followed by desorption) in a dm/dt mode according to the conditions described in Table 6 below. Table 6 [table] The sample obtained after crystallization protocol is pre-dried under a stream of dry filtered air until a stable weight is obtained. Next, relative humidity is increased by 5% increments. For each step, the sample mass is allowed to increase until equilibrium is reached (dm/dt criterion), and then a new relative humidity rise occurs. […] After equilibration at this point, desorption begins in a similar stepwise fashion, with sample weight again allowed to stabilize after each incremental humidity decrease. For each segment of the method described above, the recording of the sample mass allows describing of the whole sorption/desorption behavior versus relative humidity. The hygroscopic character of the two crystal forms has been investigated as described above.

[3] = Solubility assessment of the two crystal forms (solubilized free base concentration over time in pH 7.4 buffer, HPLC); settings: pH 7.4, 20°C, protected from light
[4] = Solubility assessment in pH 1 HCl/KCl buffer (saturation, 24 hours at 20°C, HPLC); settings: pH 1, simulated gastric fluid, thermodynamic from solid
Description: The solubility of the HC1 salt and of the free base was compared in a pH1 HC1/KC1 buffer and in a pH 7.4 phosphate buffer. For each medium, the saturation of the medium is obtained by adding an excess of active ingredient to a given volume of test medium. The suspension is stirred over 24 hours at 20°C, protected from light. The supernatant is then isolated by centrifugation, diluted in a solvent mixture allowing its injection into the chromatographic system. The compound concentration in solution for each medium is determined by external standardization and HPLC under the conditions detailed in Table3 below. Solubility was tested over a range from 1 µg/mL up to 1 mg/mL.

CN(C)c1cccc(-c2c3c(=O)n(-c4ccccc4Cl)[nH]c3cc(=O)n2C)c1 [Form A, 2-(2-chlorophenyl)-4-[3-(dimethylamino)phenyl]-5-methyl-1H-pyrazolo[4,3-c] pyridine-3,6(2H,5H)-dione]
solubility [1]: 0.5 mg/mL (≈ 1270 µM)
solubility at 30 min ([1]; phosphate buffer, 20 °C, pH 7.4, aqueous buffer, thermodynamic from solid, pH 7.4, 20°C, protected from light, 30min, read-out: Solubilized fraction): 0.33 mg/mL (≈ 836 µM)
solubility at 2 h ([1]; phosphate buffer, 20 °C, pH 7.4, aqueous buffer, thermodynamic from solid, pH 7.4, 20°C, protected from light, 2h, read-out: Solubilized fraction): 0.37 mg/mL (≈ 937 µM)
solubility at 4 h ([1]; phosphate buffer, 20 °C, pH 7.4, aqueous buffer, thermodynamic from solid, pH 7.4, 20°C, protected from light, 4h, read-out: Solubilized fraction): 0.39 mg/mL (≈ 988 µM)
solubility at 6 h ([1]; phosphate buffer, 20 °C, pH 7.4, aqueous buffer, thermodynamic from solid, pH 7.4, 20°C, protected from light, 6h, read-out: Solubilized fraction): 0.4 mg/mL (≈ 1010 µM)
solubility at 24 h ([1]; phosphate buffer, 20 °C, pH 7.4, aqueous buffer, thermodynamic from solid, pH 7.4, 20°C, protected from light, 24 h, read-out: Solubilized fraction): 0.51 mg/mL (≈ 1290 µM)
sample mass uptake ([2]; 60% relative humidity): 0.2%
sample mass uptake ([2]; 95% relative humidity): 0.3%
solubility at 1 h ([3]; phosphate buffer, 20 °C, pH 7.4, aqueous buffer, thermodynamic from solid, read-out: Solubilized fraction): 0.35 mg/mL (≈ 886 µM)

CN(C)c1cccc(-c2c3c(=O)n(-c4ccccc4Cl)[nH]c3cc(=O)n2C)c1 [Form B, 2-(2-chlorophenyl)-4-[3-(dimethylamino)phenyl]-5-methyl-1H-pyrazolo[4,3-c] pyridine-3,6(2H,5H)-dione]
Solubilized fraction ([1]; pH 7.4, 20°C, protected from light, 30min): 0.23 mg/mL
Solubilized fraction ([1]; pH 7.4, 20°C, protected from light, 2h): 0.26 mg/mL
Solubilized fraction ([1]; pH 7.4, 20°C, protected from light, 4h): 0.27 mg/mL
Solubilized fraction ([1]; pH 7.4, 20°C, protected from light, 6h): 0.28 mg/mL
Solubilized fraction ([1]; pH 7.4, 20°C, protected from light, 24 h): 0.26 mg/mL
solubility ([1]; phosphate buffer, 20 °C, pH 7.4, aqueous buffer, thermodynamic from solid, read-out: Solubility): 0.3 mg/mL (≈ 760 µM)
hygroscopic character [2]: non-hygroscopic; also recorded: not hygroscopic
mass loss upon drying ([2]; drying at 0%RH): 0.2%
solubility at 24 h [4]: > 30 mg/mL
Solubilized fraction ([3]; 1h): 0.25 mg/mL

CN(C)c1cccc(-c2c3c(=O)n(-c4ccccc4Cl)[nH]c3cc(=O)n2C)c1 [free base, 2-(2-chlorophenyl)-4-[3-(dimethylamino)phenyl]-5-methyl-1H-pyrazolo[4,3-c] pyridine-3,6(2H,5H)-dione]
sample mass uptake ([2]; 60% relative humidity): 0.2%
sample mass uptake ([2]; 95% relative humidity): 0.3%
hygroscopic character [2]: non-hygroscopic
